# From patent US11186640B2, “Method for the identification of immunotherapy-drug combinations using a network approach” (THE UNIVERSITY OF WESTERN AUSTRALIA, priority 2014, dated 2021)
# “Also recorded” adds a separate entry of the source. Like-named read-outs stand apart in the source and are kept apart here.
# Key:
# [1] = test system: AB1-HA mesothelioma; test: in vivo co-treatment with anti-CTLA-4 in AB1-HA tumour bearing mice; set-up: species or system BALB/c mice; details: for anti-tumour response / response rate to anti-CTLA-4 on co-treatment: drug in combination with anti-CTLA-4
# [2] = test system: Renca kidney cancer cells; type: in vivo, BALB/c mice
# [3] = test system: AB1-HA mesothelioma; test: in vivo co-treatment with anti-GITR in AB1-HA tumour bearing mice; set-up: species or system BALB/c mice; details: drug in combination with anti-GITR
# [4] = test system: Line-1 lung cancer cells; test: in vivo co-treatment with anti-CTLA4 in Line-1 lung cancer model; set-up: species or system BALB/c mice
# [5] = mouse, in vivo, ip, 400 mg/kg
# [6] = mice, i.p. administration; cited from earlier work
# [7] = test system: melanoma; details: melanoma patients after ipilimumab; cited from earlier work
Molecule,anti-tumour response / response rate to anti-CTLA-4 on co-treatment [1],other results
Cc1cc(Nc2cc(N3CCN(C)CC3)nc(Sc3ccc(NC(=O)C4CC4)cc3)n2)n[nH]1 [VX-680],significantly increased,
"O=[N+]([O-])O[C@H]1CO[C@H]2[C@@H]1OC[C@H]2O[N+](=O)[O-] [ISDN, Isosorbide dinitrate]",increase the therapeutic efficacy; also recorded: increased the response rate,"survival / clinical efficacy of CTLA4 blockade on co-treatment ([2]; Renca kidney cancer, drug in combination with anti-CTLA4): improve the clinical efficacy; also recorded: improved survival; survival / efficacy of checkpoint blockade with anti-GITR on co-treatment [3]: could equally be improved; also recorded: improved survival; complete regression / clinical efficacy of CTLA4 blockade on co-treatment ([4]; drug in combination with anti-CTLA4): improve the clinical efficacy; also recorded: complete regression in a substantial proportion of mice; complete regression ([4]; either treatment alone): not observed"
Cc1ncc(CO)c(CO)c1O [pyridoxine],clear effect; also recorded: increased anti-tumour response,
"CC1=C(/C=C/C(C)=C/C=C/C(C)=C/C(=O)O)C(C)(C)CCC1 [ATRA, All-trans Retinoic Acid]",clear effect; also recorded: increased anti-tumour response,"survival / clinical efficacy of CTLA4 blockade on co-treatment ([2]; mouse, in vivo): improve the clinical efficacy; also recorded: improved survival"
O=S(=O)(c1cccc2cnccc12)N1CCCNCC1 [Fasudil],increased the response rate,growth delay ([1]; drug alone): did not result in any growth delay
CCOC(=O)N1CCN(/[N+]([O-])=N/Oc2ccc([N+](=O)[O-])cc2[N+](=O)[O-])CC1 [JS-K],improves the clinical benefit,
NC(=NCCC[C@H](N)C(=O)O)N[N+](=O)[O-] [L-NNA],diminished; also recorded: abrogated the anti-tumour effect,
Cc1cc2c(cc1S(N)(=O)=O)S(=O)(=O)CCC2 [meticrane],clear effect; also recorded: increased anti-tumour response,clinical signs [5]: slightly ruffled; LD50 [6]: 10000 mg/kg
ipilimumab,,7-year survival [7]: 17%
COc1c2c(cc3c1OCO3)CCN(C)C2 [hydrocotarnine],increased anti-tumour response,
CN1CC[C@H](c2c(O)cc(O)c3c(=O)cc(-c4ccccc4Cl)oc23)[C@H](O)C1 [flavopiridol],increased the response rate,
